Assays:
ULK1 = molecular target: T1, ULK1 (Homo sapiens, UniProt O75385); experiment: NanoBRET CELLinib128; assay type: binding; conditions: 1 µM; 100% no effect, 0% complete tracer displacement
T1 construct: Full-length kinase ORF (Promega, Madison, WI, USA) cloned in frame with a NanoLuc-vector; host or cells: HEK293T
In short: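 HEK293T cells are transfected with NanoLuc-fused full-length kinase and left 20 h to express. Compound at 1 μM and tracer are added and equilibrated 2 h at 37 °C. Filtered luminescence then yields BRET, expressed relative to tracer and background controls.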

MAPK14 [1] = molecular target: T2, MAPK14 (Homo sapiens, UniProt Q16539); experiment: Global proteomics in MOLT-4 cells; assay type: cell-based; set-up: global protein expression profiles of MOLT-4 cells treated with 50 nM MA191 for 5 h; endogenous in cells; host or cells: MOLT-4; conditions: 50 nM, 5 h
Method: Proteome analyses can uncover unexpected targets of PROTACs. Since AML cells with FLT3-ITD are massively damaged by MA191, we applied it to MOLT-4 cells and analyzed them by proteomics.
MOLT4 cells were lysed using a buffer (50 mM NaCl, 8 M urea, 50 mM EPPS, pH 8.5, with phosphatase and protease inhibitors) and homogenized by bead beating (3 × 30 s at 2400 strokes/min). Protein concentration was determined using the Bradford assay. Fifty micrograms of protein per sample were reduced, alkylated, and precipitated using methanol/chloroform. The dried protein pellet was resuspended in 4 M urea/50 mM HEPES (pH 7.4) and diluted to 1 M urea with 200 mM EPPS (pH 8).
Proteins were digested with LysC and trypsin (1:50, enzyme:protein) for 12 h at 37 °C. Samples were acidified to pH 2–3 with formic acid and desalted using C18 solid-phase extraction. […]
diaPASEF raw data were analyzed using DIA-NN 1.8 in library-free mode, enabling peptide/protein identification, FDR control, protein assembly, and quantification through in silico digestion and deep learning-based predictions. […] Precursor quantification used Robust LC with RT-based cross-run normalization.
Proteins with low total abundance (<2000 × number of treatments) were excluded. […] Significant differences versus control were assessed using two-sided moderated t-tests via the limma package in R framework (R Development Core Team, 2014). […]
Target sequence in this assay (Q16539 whole entry): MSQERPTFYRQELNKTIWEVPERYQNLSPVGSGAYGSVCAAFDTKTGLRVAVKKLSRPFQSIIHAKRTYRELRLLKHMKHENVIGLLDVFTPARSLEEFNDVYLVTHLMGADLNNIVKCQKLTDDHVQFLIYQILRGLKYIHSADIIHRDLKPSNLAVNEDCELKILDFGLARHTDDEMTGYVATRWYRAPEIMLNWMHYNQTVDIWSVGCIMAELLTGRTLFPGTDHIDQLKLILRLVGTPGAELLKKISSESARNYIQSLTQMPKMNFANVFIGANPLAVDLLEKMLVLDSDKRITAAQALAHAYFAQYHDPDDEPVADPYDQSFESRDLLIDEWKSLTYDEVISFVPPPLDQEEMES

MAPK14 [2] = molecular target: T2, MAPK14; experiment: Phosphorylation of MAPK14, immunoblot in MV4-11 cells; assay type: cell-based; set-up: endogenous in cells; host or cells: K562, RS4-11, MV4-11, MOLM-13 (A17); MV4-11 (A20)
Target sequence in this assay (Q16539 2-360 limits assumed): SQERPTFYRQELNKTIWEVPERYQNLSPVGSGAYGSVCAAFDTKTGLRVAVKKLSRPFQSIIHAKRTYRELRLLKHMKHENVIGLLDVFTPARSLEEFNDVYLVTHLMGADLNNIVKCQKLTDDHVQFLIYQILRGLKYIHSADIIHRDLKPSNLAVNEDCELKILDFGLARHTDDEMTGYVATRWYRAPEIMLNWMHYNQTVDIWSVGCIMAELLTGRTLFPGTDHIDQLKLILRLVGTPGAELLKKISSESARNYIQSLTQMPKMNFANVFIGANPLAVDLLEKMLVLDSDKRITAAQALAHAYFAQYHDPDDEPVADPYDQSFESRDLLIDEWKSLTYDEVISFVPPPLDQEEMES

T1 sequence (O75385 whole entry): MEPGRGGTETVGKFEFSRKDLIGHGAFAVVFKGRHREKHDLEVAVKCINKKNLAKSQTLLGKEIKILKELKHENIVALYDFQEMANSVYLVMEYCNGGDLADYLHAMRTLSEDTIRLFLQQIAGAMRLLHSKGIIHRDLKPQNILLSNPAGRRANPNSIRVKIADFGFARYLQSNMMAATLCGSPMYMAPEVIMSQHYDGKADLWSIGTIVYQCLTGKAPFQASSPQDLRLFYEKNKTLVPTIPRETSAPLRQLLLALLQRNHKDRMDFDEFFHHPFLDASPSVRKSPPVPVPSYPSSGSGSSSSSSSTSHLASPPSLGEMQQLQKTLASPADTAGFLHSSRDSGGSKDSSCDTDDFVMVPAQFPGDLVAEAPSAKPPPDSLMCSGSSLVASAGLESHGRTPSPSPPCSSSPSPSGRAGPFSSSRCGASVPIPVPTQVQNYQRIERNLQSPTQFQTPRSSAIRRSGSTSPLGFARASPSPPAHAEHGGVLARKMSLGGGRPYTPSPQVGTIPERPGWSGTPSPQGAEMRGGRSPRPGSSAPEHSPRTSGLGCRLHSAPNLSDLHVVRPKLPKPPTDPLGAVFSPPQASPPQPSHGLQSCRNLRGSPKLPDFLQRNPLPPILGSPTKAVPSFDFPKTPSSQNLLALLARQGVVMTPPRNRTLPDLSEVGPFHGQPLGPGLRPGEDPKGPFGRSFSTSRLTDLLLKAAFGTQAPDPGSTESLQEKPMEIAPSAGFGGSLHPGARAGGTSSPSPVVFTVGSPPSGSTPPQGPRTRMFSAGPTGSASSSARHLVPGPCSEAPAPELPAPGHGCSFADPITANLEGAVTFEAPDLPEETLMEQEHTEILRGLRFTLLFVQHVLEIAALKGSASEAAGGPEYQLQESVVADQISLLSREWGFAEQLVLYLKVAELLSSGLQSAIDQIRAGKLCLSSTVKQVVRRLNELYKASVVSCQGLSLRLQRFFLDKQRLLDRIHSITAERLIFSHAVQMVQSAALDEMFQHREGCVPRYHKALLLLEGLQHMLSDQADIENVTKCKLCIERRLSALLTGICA

Row | Structure (SMILES) | Tracer bound (ULK1) [%] | MAPK14 protein level, proteome analysis (MAPK14 [1]) | phosphorylated MAPK14 (p-MAPK14) (MAPK14 [2])
1 | CNC(=O)c1cc(Oc2ccc(NC(=O)Nc3cc(C(C)(C)C)on3)cc2)ccn1 [MA68, reference compound] | 117.4 |  | 
2 | Cc1ncsc1-c1ccc([C@H](C)NC(=O)[C@@H]2C[C@@H](O)CN2C(=O)[C@@H](NC(=O)[C@H]2CC[C@H](C(=O)N3CCN(CCNC(=O)c4cc(Oc5ccc(NC(=O)Nc6cc(C(C)(C)C)on6)cc5)ccn4)CC3)CC2)C(C)(C)C)cc1 [MA191, 4-(4-(3-(5-(tert-Butyl)isoxazol-3-yl)ureido)phenoxy)-N-(2-(4-(trans-4-(((S)-1-((2S,4R)-4-hydroxy-2-(((S)-1-(4-(4-methylthiazol-5-yl)phenyl)ethyl)carbamoyl)pyrrolidin-1-yl)-3,3-dimethyl-1-oxobutan-2-yl)carbamoyl)cyclohexanecarbonyl)piperazin-1-yl)ethyl)picolinamide] |  | striking downregulation of MAPK14 | loss of p-MAPK14 together with MAPK14
